In brackets after ≈: the same amount, converted by molar mass.
What was measured:
Experiment in all cases: ≥ marks a high value that may be exact or a test limit, other limits are often not marked, values filed in µg/mL are converted to µM
[1] = test system: Neisseria gonorrhoeae F62
[2] = test system: Neisseria gonorrhoeae FA19
[3] = test system: Micrococcus luteus BCRC 11034
[4] = test system: Streptococcus pneumoniae BCRC 10794
Vibrio alginolyticus = test system: Vibrio alginolyticus
[5] = test system: Staphylococcus aureus BCRC 10780
[6] = test system: Staphylococcus sp. BCRC 10451
[7] = test system: Vibrio harveyi BCRC 13812
[8] = test system: Candida albicans CEMTC 34
[9] = test system: Acinetobacter baumannii AL1851-ΔLpxA
[10] = test system: Acinetobacter baumannii ATCC 19606
[11] = test system: Staphylococcus epidermidis DSM 28319
[12] = test system: Salmonella enterica DSM 17058
[13] = test system: Pseudomonas aeruginosa DSM 1117
[14] = test system: Candida tropicalis CEMTC 2385
[15] = test system: Candida glabrata CEMTC 2563
[16] = test system: Escherichia coli DSM 1103
Shigella sonnei DSM 5570 = test system: Shigella sonnei DSM 5570
[17] = test system: Klebsiella pneumoniae DSM 789
[18] = test system: Candida parapsilosis CEMTC 2529
[19] = test system: Acinetobacter baumannii Al1852-ΔLpxD
[20] = test system: Citrobacter freundii DSM 30029
[21] = test system: Candida albicans ATCC 10231
[22] = test system: Staphylococcus aureus DSM 11729
Klebsiella aerogenes = test system: Klebsiella aerogenes
[23] = test system: Pseudomonas aeruginosa 447
[24] = test system: Candida albicans ATCC 2002
Candida albicans = test system: Candida albicans
[25] = test system: Klebsiella pneumoniae ATCC 700603
[26] = test system: Staphylococcus aureus ATCC 25923
Pseudomonas aeruginosa = test system: Pseudomonas aeruginosa
[27] = test system: Pseudomonas aeruginosa PAO1
[28] = test system: Enterobacter cloacae ATCC 13047
[29] = test system: Staphylococcus aureus ATCC 43300
Enterobacter cloacae = test system: Enterobacter cloacae
[30] = test system: Pseudomonas aeruginosa ATCC 27853
[31] = test system: Haemophilus influenzae ATCC 49766
[32] = test system: Haemophilus influenzae ATCC 49247
Staphylococcus aureus = test system: Staphylococcus aureus
[33] = test system: Klebsiella pneumoniae ATCC 13883
Escherichia coli = test system: Escherichia coli
[34] = test system: Escherichia coli ATCC 25922
[35] = test system: Enterococcus faecalis ATCC 29212
Escherichia coli ML-35p = test system: Escherichia coli ML-35p
[36] = test system: Staphylococcus aureus ATCC 25325
[37] = test system: Escherichia coli ATCC 35218
[38] = test system: Pseudomonas aeruginosa ATCC 9027
[39] = test system: Bacillus cereus ATCC 11778
[40] = test system: Staphylococcus aureus ATCC 25023

Q: Which MIC [1] does the source give for `CC(C)[C@H](NC(=O)[C@@H]1CSSC[C@H](N)C(=O)N[C@@H](Cc2ccc(O)cc2)C(=O)N[C@H]2CSSC[C@H](NC(=O)[C@H](Cc3ccccc3)NC(=O)[C@H](CCCN=C(N)N)NC(=O)[C@H](CCCN=C(N)N)NC(=O)[C@H](CCCN=C(N)N)NC2=O)C(=O)N[C@@H](C(C)C)C(=O)N1)C(N)=O` [CYCRRRFCVCV] here?
A: 3.2 µM (≈ 4.49 µg/mL)

Q: And the MIC [2]?
A: 10 µM (≈ 14 µg/mL)

Q: With `CC[C@H](C)[C@H](NC(=O)[C@H](Cc1ccccc1)NC(C)=O)C(=O)N[C@@H](Cc1ccccc1)C(=O)N[C@@H](Cc1cnc[nH]1)C(=O)N[C@H](C(=O)N[C@H](C(=O)N[C@@H](CCCCN)C(=O)NCC(=O)N[C@@H](CC(C)C)C(=O)N[C@@H](Cc1ccccc1)C(=O)N[C@@H](Cc1cnc[nH]1)C(=O)N[C@@H](C)C(=O)NCC(N)=O)[C@@H](C)CC)[C@@H](C)CC` [FIFHIIKGLFHAG] as the compound, how does the MIC [3] read?
A: ≥ 33.3 µM

Q: And the MIC [4]?
A: 16.7 µM (≈ 25.7 µg/mL)

Q: What about the MIC (Vibrio alginolyticus) of the same compound?
A: 4.17 µM (≈ 6.42 µg/mL)

Q: What about the MIC [5] of the same compound?
A: 4.17 µM (≈ 6.42 µg/mL)

Q: What about the MIC [6] of the same compound?
A: 4.17 µM (≈ 6.42 µg/mL)

Q: What about the MIC [7] of the same compound?
A: 4.17 µM (≈ 6.42 µg/mL)

Q: Which results are given for `NCCCC[C@H](NC(=O)[C@H](Cc1ccccc1)NC(=O)[C@H](Cc1ccccc1)NC(=O)[C@H](CCCCN)NC(=O)[C@H](Cc1ccccc1)NC(=O)[C@H](Cc1ccccc1)NC(=O)[C@H](CCCCN)NC(=O)[C@H](Cc1ccccc1)NC(=O)[C@H](Cc1ccccc1)NC(=O)[C@@H](N)CCCCN)C(N)=O` [KFFKFFKFFK]?
A: MIC [8]: 20 µM (≈ 28.3 µg/mL); MIC [9]: 16 µM (≈ 22.6 µg/mL); MIC [10]: 32 µM (≈ 45.2 µg/mL); MIC [11]: 0.5 µM (≈ 0.706 µg/mL); MIC [12]: 16 µM (≈ 22.6 µg/mL); MIC [13]: 1 µM (≈ 1.41 µg/mL); MIC [14]: 10 µM (≈ 14.1 µg/mL); MIC [15]: 20 µM (≈ 28.3 µg/mL); MIC [16]: 2 µM (≈ 2.83 µg/mL); MIC (Shigella sonnei DSM 5570): 2 µM (≈ 2.83 µg/mL); MIC [17]: ≥ 32 µM; MIC [18]: 20 µM (≈ 28.3 µg/mL); MIC [19]: ≥ 32 µM; MIC [20]: 4 µM (≈ 5.65 µg/mL); MIC [21]: 20 µM (≈ 28.3 µg/mL); MIC [22]: 16 µM (≈ 22.6 µg/mL)

Q: With `CC[C@H](C)[C@H](NC(=O)[C@@H](NC(=O)[C@H](CCCN=C(N)N)NC(=O)[C@@H]1CCCN1C(=O)[C@H](CCCCN)NC(=O)[C@H](CCCCN)NC(=O)[C@H](Cc1ccccc1)NC(=O)[C@H](Cc1ccccc1)NC(=O)[C@H](CCCCN)NC(=O)[C@H](CCCCN)NC(=O)[C@H](C)NC(=O)[C@H](CCCN=C(N)N)NC(=O)[C@H](CCCCN)NC(=O)[C@H](CCCCN)NC(=O)[C@@H](NC(=O)[C@H](CO)NC(=O)[C@H](CC(N)=O)NC(=O)[C@H](CCCCN)NC(=O)[C@H](CC(C)C)NC(=O)[C@H](CCCCN)NC(=O)[C@H](CCCCN)NC(=O)[C@H](Cc1ccccc1)NC(=O)[C@H](Cc1ccccc1)NC(=O)[C@@H](N)CCCCN)C(C)C)C(C)C)C(=O)NCC(=O)N[C@H](C(=O)N[C@@H](CO)C(=O)N[C@H](C(=O)N1CCC[C@H]1C(=O)N[C@@H](Cc1ccccc1)C(=O)O)[C@@H](C)CC)C(C)C` [KFFKKLKNSVKKRAKKFFKKPRVIGVSIPF] as the compound, how does the MIC (Klebsiella aerogenes) read?
A: 1.74 µM (≈ 6.25 µg/mL)

Q: What about the MIC [23] of the same compound?
A: 1.74 µM (≈ 6.25 µg/mL)

Q: What about the MIC [24] of the same compound?
A: ≥ 55.6 µM

Q: What about the MIC (Candida albicans) of the same compound?
A: > 55.6 µM

Q: And the MIC [25]?
A: 0.869 µM (≈ 3.13 µg/mL)

Q: And the MIC [26]?
A: 0.869 µM (≈ 3.13 µg/mL)

Q: What about the MIC (Pseudomonas aeruginosa) of the same compound?
A: 3.48 µM (≈ 12.5 µg/mL)

Q: And the MIC [27]?
A: 1.74 µM (≈ 6.25 µg/mL)

Q: And the MIC [28]?
A: 6.95 µM (≈ 25 µg/mL)

Q: What about the MIC [29] of the same compound?
A: 1.74 µM (≈ 6.25 µg/mL)

Q: And the MIC (Enterobacter cloacae)?
A: 0.869 µM (≈ 3.13 µg/mL)

Q: And the MIC [30]?
A: 1.74 µM (≈ 6.25 µg/mL)

Q: What about the MIC [31] of the same compound?
A: 0.869 µM (≈ 3.13 µg/mL)

Q: What about the MIC [32] of the same compound?
A: 0.869 µM (≈ 3.13 µg/mL)

Q: What about the MIC (Staphylococcus aureus) of the same compound?
A: 1.74 µM (≈ 6.25 µg/mL)

Q: What about the MIC [33] of the same compound?
A: 1.74 µM (≈ 6.25 µg/mL)

Q: And the MIC (Escherichia coli)?
A: 1.74 µM (≈ 6.25 µg/mL)

Q: And the MIC [34]?
A: 1.74 µM (≈ 6.25 µg/mL)

Q: And the MIC [35]?
A: 6.95 µM (≈ 25 µg/mL)

Q: What about the MIC (Escherichia coli ML-35p) of the same compound?
A: 0.869 µM (≈ 3.13 µg/mL)

Q: `CC(C)C[C@H](NC(=O)CNC(=O)[C@@H](NC(=O)[C@H](Cc1cnc[nH]1)NC(=O)[C@H](CCCCN)NC(=O)[C@H](CC(C)C)NC(=O)[C@@H](N)CCCCN)C(C)C)C(=O)N[C@@H](Cc1cnc[nH]1)C(=O)N[C@H](C(=O)NCC(=O)N[C@@H](CCCCN)C(=O)N[C@@H](CC(C)C)C(=O)N[C@@H](CCCCN)C(=O)O)C(C)C` [KLKHVGLHVGKLK] was tested. Which MIC [36] did it give?
A: ≥ 40.2 µM

Q: What about the MIC [30] of the same compound?
A: 56 µM (≈ 81.6 µg/mL)

Q: And the MIC [37]?
A: ≥ 43.4 µM

Q: What about the MIC [35] of the same compound?
A: 52.3 µM (≈ 76.2 µg/mL)

Q: How did the MIC [26] turn out when `CC(C)C[C@H](NC(=O)[C@@H](NC(=O)[C@H](CCCCN)NC(=O)[C@H](CCCCN)NC(=O)[C@H](CC(C)C)NC(=O)[C@@H](N)CC(C)C)C(C)C)C(=O)N[C@@H](CCCCN)C(=O)N[C@@H](C)C(=O)N[C@@H](C)C(=O)N[C@@H](C)C(N)=O` [LLKKVLKAAA] was run?
A: > 50 µM

Q: What about the MIC [38] of the same compound?
A: > 50 µM

Q: And the MIC [37]?
A: ≥ 50 µM

Q: And the MIC [39]?
A: ≥ 50 µM

Q: Which MIC [40] does the source give for `CC(C)C[C@H](NC(=O)[C@H](CCCN=C(N)N)NC(=O)[C@H](CC(C)C)NC(=O)[C@H](CC(C)C)NC(=O)[C@H](CC(C)C)NC(=O)[C@H](CC(C)C)NC(=O)[C@H](CC(C)C)NC(=O)[C@H](CCCCN)NC(=O)[C@H](Cc1c[nH]c2ccccc12)NC(=O)[C@@H](N)CCCN=C(N)N)C(N)=O` [RWKLLLLLRL] here?
A: 1.51 µM (≈ 2 µg/mL)

— DBAASP
